Values of other authors as cited in US20050031668A1, “Implantable polymeric device for sustained release of nalmefene” (priority 2003, published 2005).

Experiments:
[1] = in vivo
[2] = not given; remark: listed apart in the source
[3] = not given; remark: listed apart in the source
[4] = in vivo; remark: listed apart in the source

SMILES | efficacy in animal models of alcoholism [1] | agonist activity (μ, δ, and κ receptors) | opioid receptors acted on (μ, δ, and κ receptors) | nausea (20 or 80 mg/day orally) | serious adverse events (20 or 80 mg/day orally) | proportion of nalmefene patients who relapsed (20 or 80 mg/day orally, twelve weeks) | relapse to heavy drinking versus placebo (20 or 80 mg/day orally, twelve-week study, 105 alcoholic patients) | number of abstinent days and self-reported craving (treated versus control groups) | rate of relapse compared with placebo or 10 mg nalmefene ([2]; 40 mg oral, 21 alcohol-dependent patients) | number of drinks per drinking day ([2]; 40 and 10 mg doses) | half-life ([3]; compared with naltrexone) | serious adverse effects ([3]; in vivo) | limitations of use: hepatotoxicity [4] | limitations of use: nausea [4]
C=C1CC[C@@]2(O)[C@H]3Cc4ccc(O)c5c4[C@@]2(CCN3CC2CC2)[C@H]1O5 [nalmefene] | effective | no agonist activity | acts on μ, δ, and κ receptors | Transient nausea | no serious adverse events occurred | One-third | Fewer patients receiving nalmefene relapsed to heavy drinking | the same in treated and control groups | significantly lower rate of relapse | significantly decreased | longer half-life | no serious adverse effects |  | 
O=C1CC[C@@]2(O)[C@H]3Cc4ccc(O)c5c4[C@@]2(CCN3CC2CC2)[C@H]1O5 [naltrexone] |  |  | primarily blocks μ receptors |  |  |  |  |  |  |  |  |  | dose-dependent hepatotoxic side effects | intolerable nausea
